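Grown in 96-well plates, cells were treated for 48 hours with each compound at five concentrations. Insufficient inhibition: endpoint recorded as highest concentration tested. GI50 = concentration required for 50% inhibition of growth. TGI marks complete inhibition of growth.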
Legend:
Assay in all cases: NCI-60 cell line screen, 48 h
[1] = test system: HCT-116 colon
[2] = test system: ACHN renal
[3] = test system: MOLT-4 leukemia
[4] = test system: SNB-75 CNS
[5] = test system: A549 NSCLC
[6] = test system: RPMI-8226 leukemia
[7] = test system: MDA-MB-435
[8] = test system: OVCAR-4 ovarian
[9] = test system: SK-OV-3 ovarian
[10] = test system: HT29 colon
[11] = test system: HL-60(TB) leukemia
[12] = test system: BT-549 breast
[13] = test system: SN12C renal
[14] = test system: OVCAR-3 ovarian
[15] = test system: SK-MEL-28 melanoma
[16] = test system: A498 renal
[17] = test system: MDA-MB-231 breast
[18] = test system: HOP-62 NSCLC
[19] = test system: SF-295 CNS
[20] = test system: DU-145 prostate
[21] = test system: HCC-2998 colon
[22] = test system: SF-268 CNS
[23] = test system: PC-3 prostate
[24] = test system: SNB-19 CNS
[25] = test system: NCI-H226 lung
[26] = test system: LOX IMVI melanoma
[27] = test system: NCI-H460 lung
[28] = test system: UACC-62 melanoma
[29] = test system: U251 CNS
[30] = test system: HOP-92 NSCLC
[31] = test system: NCI-H23 lung
[32] = test system: MALME-3M melanoma
[33] = test system: T-47D breast
[34] = test system: RXF 393 renal
[35] = test system: EKVX NSCLC
[36] = test system: SF-539 CNS
[37] = test system: CAKI-1 renal
[38] = test system: IGROV1 ovarian
[39] = test system: HCT-15 colon
[40] = test system: KM12 colon
[41] = test system: SW-620 colon
[42] = test system: UO-31 renal
[43] = test system: HS 578T breast
[44] = test system: CCRF-CEM leukemia
[45] = test system: 786-0 renal
[46] = test system: NCI-H522 lung
[47] = test system: OVCAR-5 ovarian
[48] = test system: MCF7 breast
[49] = test system: NCI/ADR-RES ovarian
[50] = test system: K-562 leukemia
[51] = test system: SK-MEL-2 melanoma
[52] = test system: COLO 205 colon
[53] = test system: SK-MEL-5 melanoma
[54] = test system: UACC-257 melanoma
[55] = test system: M14 melanoma
[56] = test system: TK-10 renal

In the case of `NC(N)=N/N=C\c1ccc(OCc2ccccc2)cc1`, the GI50 [1] is reported as 1.51 µM, the TGI [1] is reported as 3.14 µM and the GI50 [2] is reported as 2.64 µM. The TGI [2] was 8.66 µM, the GI50 [3] was 3.36 µM and the TGI [3] was 9.36 µM. The GI50 [4] was 1.64 µM, the TGI [4] was 4.7 µM and the GI50 [5] was 3.31 µM. It also gave a TGI [5] of 13.2 µM, a GI50 [6] of 2.02 µM and a TGI [6] of 5.01 µM. The GI50 [7] was 1.68 µM, the TGI [7] was 4.1 µM and the GI50 [8] was 2.63 µM. It also gave a TGI [8] of 13.8 µM, a GI50 [9] of 3.47 µM and a TGI [9] of 14.7 µM. The GI50 [10] was 1.87 µM, the TGI [10] was 3.87 µM and the GI50 [11] was 2.56 µM. The TGI [11] was 4.87 µM, the GI50 [12] was 10.8 µM and the TGI [12] was 23 µM. It also gave a GI50 [13] of 1.97 µM, a TGI [13] of 5.35 µM and a GI50 [14] of 2.2 µM. The TGI [14] was 5.75 µM, the GI50 [15] was 1.76 µM and the TGI [15] was 3.68 µM. It also gave a GI50 [16] of 2.31 µM, a TGI [16] of 9.7 µM and a GI50 [17] of 1.96 µM. The TGI [17] was 5.12 µM, the GI50 [18] was 2.42 µM and the TGI [18] was 10.5 µM. The GI50 [19] was 2.25 µM, the TGI [19] was 7.02 µM and the GI50 [20] was 2.71 µM. For the same molecule, the TGI [20] was 8.45 µM, the GI50 [21] was 1.67 µM and the TGI [21] was 3.2 µM. For the same molecule, the GI50 [22] was 3.47 µM, the TGI [22] was 17.4 µM and the GI50 [23] was 2.41 µM. It also gave a TGI [23] of 10.6 µM, a GI50 [24] of 3.08 µM and a TGI [24] of 15.4 µM. The GI50 [25] was 4.87 µM, the TGI [25] was 24.2 µM and the GI50 [26] was 1.53 µM. The TGI [26] was 2.96 µM, the GI50 [27] was 1.77 µM and the TGI [27] was 3.47 µM. For the same molecule, the GI50 [28] was 1.57 µM, the TGI [28] was 3.4 µM and the GI50 [29] was 1.62 µM. It also gave a TGI [29] of 3.17 µM, a GI50 [30] of 1.05 µM and a TGI [30] of 4.24 µM. The GI50 [31] was 9.84 µM, the TGI [31] was 24.6 µM and the GI50 [32] was 2.32 µM. The TGI [32] was 6.03 µM, the GI50 [33] was 1.45 µM and the TGI [33] was 4.22 µM. The GI50 [34] was 1.79 µM, the TGI [34] was 4.26 µM and the GI50 [35] was 7.37 µM. It also gave a TGI [35] of 24.2 µM, a GI50 [36] of 1.7 µM and a TGI [36] of 4.06 µM. For the same molecule, the GI50 [37] was 3.13 µM, the TGI [37] was 13.4 µM and the GI50 [38] was 3.42 µM. It also gave a TGI [38] of 18.3 µM, a GI50 [39] of 1.97 µM and a TGI [39] of 5.37 µM. For the same molecule, the GI50 [40] was 1.63 µM, the TGI [40] was 3.1 µM and the GI50 [41] was 1.64 µM. The TGI [41] was 3.3 µM, the GI50 [42] was 2.7 µM and the TGI [42] was 17.5 µM. It also gave a GI50 [43] of 1.75 µM, a TGI [43] of 4.81 µM and a GI50 [44] of 2.73 µM. For the same molecule, the TGI [44] was 10 µM, the GI50 [45] was 1.66 µM and the TGI [45] was 3.17 µM. It also gave a GI50 [46] of 1.52 µM, a TGI [46] of 3.15 µM and a GI50 [47] of 2.95 µM. The TGI [47] was 15.5 µM, the GI50 [48] was 1.37 µM and the TGI [48] was 2.91 µM. It also gave a GI50 [49] of 1.82 µM, a TGI [49] of 4.93 µM and a GI50 [50] of 2.65 µM. It also gave a TGI [50] of 5.91 µM, a GI50 [51] of 1.74 µM and a TGI [51] of 3.38 µM. It also gave a GI50 [52] of 1.74 µM, a TGI [52] of 3.44 µM and a GI50 [53] of 1.62 µM. For the same molecule, the TGI [53] was 3.24 µM, the GI50 [54] was 1.61 µM and the TGI [54] was 3.31 µM.

`CCCCCCCC/C=C/CCCCCCCC1=NC(C)(C)CN1C(C)(C)CO` showed a GI50 [1] of 1.52 µM, a TGI [1] of 2.9 µM and a GI50 [2] of 1.81 µM. For the same molecule, the TGI [2] was 3.52 µM, the GI50 [3] was 2.62 µM and the TGI [3] was 5.81 µM. For the same molecule, the GI50 [4] was 1.89 µM, the TGI [4] was 5.77 µM and the GI50 [5] was 1.87 µM. For the same molecule, the TGI [5] was 3.82 µM, the GI50 [6] was 2.55 µM and the TGI [6] was 5.68 µM. It also gave a GI50 [7] of 1.72 µM, a TGI [7] of 3.26 µM and a GI50 [8] of 2.12 µM. The TGI [8] was 4.4 µM, the GI50 [9] was 14.4 µM and the TGI [9] was 29.3 µM. It also gave a GI50 [10] of 1.45 µM, a TGI [10] of 3.38 µM and a GI50 [11] of 2.23 µM. It also gave a TGI [11] of 5.5 µM, a GI50 [12] of 11.3 µM and a TGI [12] of 24.1 µM. It also gave a GI50 [13] of 2.25 µM, a TGI [13] of 6.67 µM and a GI50 [14] of 1.74 µM. It also gave a TGI [14] of 3.13 µM, a GI50 [15] of 1.79 µM and a TGI [15] of 3.18 µM. For the same molecule, the GI50 [16] was 11.5 µM, the TGI [16] was 25.7 µM and the GI50 [17] was 1.6 µM. For the same molecule, the TGI [17] was 3.77 µM, the GI50 [18] was 1.76 µM and the TGI [18] was 3.28 µM. For the same molecule, the GI50 [19] was 1.81 µM, the TGI [19] was 3.52 µM and the GI50 [20] was 1.86 µM. The TGI [20] was 3.32 µM, the GI50 [21] was 1.65 µM and the TGI [21] was 3.04 µM. The GI50 [22] was 2.01 µM, the TGI [22] was 3.84 µM and the GI50 [23] was 1.83 µM. The TGI [23] was 4.92 µM, the GI50 [24] was 2.39 µM and the TGI [24] was 6.55 µM. For the same molecule, the GI50 [25] was 2.87 µM, the TGI [25] was 7.61 µM and the GI50 [26] was 1.61 µM. For the same molecule, the TGI [26] was 2.98 µM, the GI50 [27] was 1.81 µM and the TGI [27] was 3.31 µM. It also gave a GI50 [28] of 1.82 µM, a TGI [28] of 3.47 µM and a GI50 [31] of 1.77 µM. The TGI [31] was 3.46 µM, the GI50 [33] was 3.39 µM and the TGI [33] was 11.8 µM. It also gave a GI50 [55] of 1.78 µM, a TGI [55] of 3.22 µM and a GI50 [34] of 2.17 µM. It also gave a TGI [34] of 3.99 µM, a GI50 [35] of 1.53 µM and a TGI [35] of 4.36 µM. For the same molecule, the GI50 [36] was 1.68 µM, the TGI [36] was 3.34 µM and the GI50 [37] was 1.39 µM. The TGI [37] was 2.88 µM, the GI50 [40] was 1.97 µM and the TGI [40] was 3.45 µM. For the same molecule, the GI50 [41] was 1.63 µM, the TGI [41] was 3.11 µM and the GI50 [43] was 1.84 µM. For the same molecule, the TGI [43] was 3.9 µM, the GI50 [44] was 3.04 µM and the TGI [44] was 11.4 µM. For the same molecule, the GI50 [56] was 2.61 µM, the TGI [56] was 7.46 µM and the GI50 [45] was 1.64 µM. For the same molecule, the TGI [45] was 3.12 µM, the GI50 [46] was 1.83 µM and the TGI [46] was 3.7 µM. It also gave a GI50 [47] of 2.15 µM, a TGI [47] of 5.09 µM and a GI50 [48] of 1.82 µM. For the same molecule, the TGI [48] was 3.43 µM, the GI50 [49] was 2.1 µM and the TGI [49] was 4.81 µM. The GI50 [50] was 2.12 µM, the TGI [50] was 5.48 µM and the GI50 [51] was 1.76 µM. The TGI [51] was 3.67 µM, the GI50 [52] was 1.88 µM and the TGI [52] was 3.42 µM. The GI50 [53] was 1.75 µM, the TGI [53] was 3.13 µM and the GI50 [54] was 1.76 µM. It also gave a TGI [54] of 3.54 µM.

Reference: PubChem BioAssay (NCI)
